23 compounds from BindingDB's records for doi:10.1111/cbdd.12863 (Guangzhou Institutes of Biomedicine and Health, Chinese …, 2017) can be followed below.

The target of test [1] is T1, Discoidin domain-containing receptor 2 (Homo sapiens, UniProt Q16832).
T1 sequence (Q16832 whole entry): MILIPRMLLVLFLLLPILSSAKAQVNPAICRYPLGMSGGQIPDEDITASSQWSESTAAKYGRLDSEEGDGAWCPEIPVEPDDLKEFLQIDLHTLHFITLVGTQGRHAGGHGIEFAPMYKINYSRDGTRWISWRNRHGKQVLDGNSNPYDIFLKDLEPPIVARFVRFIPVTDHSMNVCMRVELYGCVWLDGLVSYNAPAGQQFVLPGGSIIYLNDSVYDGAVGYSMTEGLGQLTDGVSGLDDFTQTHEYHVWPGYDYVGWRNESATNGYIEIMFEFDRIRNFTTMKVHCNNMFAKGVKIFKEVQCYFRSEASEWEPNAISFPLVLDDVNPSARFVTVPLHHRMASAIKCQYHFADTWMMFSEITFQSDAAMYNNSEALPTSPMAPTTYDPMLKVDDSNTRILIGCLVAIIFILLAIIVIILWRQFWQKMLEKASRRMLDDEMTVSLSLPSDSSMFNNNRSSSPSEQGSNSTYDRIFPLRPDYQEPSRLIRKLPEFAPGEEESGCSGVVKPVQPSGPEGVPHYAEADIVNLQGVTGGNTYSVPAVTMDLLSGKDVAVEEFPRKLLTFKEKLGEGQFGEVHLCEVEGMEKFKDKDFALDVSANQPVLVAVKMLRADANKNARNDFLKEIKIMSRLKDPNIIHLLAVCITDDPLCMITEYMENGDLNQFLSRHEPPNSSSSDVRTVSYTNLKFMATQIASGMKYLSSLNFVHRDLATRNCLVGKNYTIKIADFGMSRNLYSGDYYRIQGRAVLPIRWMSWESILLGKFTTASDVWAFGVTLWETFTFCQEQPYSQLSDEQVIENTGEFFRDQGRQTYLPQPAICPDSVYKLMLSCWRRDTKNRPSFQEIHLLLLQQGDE
Description: LanthaScreen Eu Kinase Activity Assay. The settings on record: pH 7.5; 25 °C. As to the method: (§1) The effects of compounds on the kinases DDR1 and DDR2 were assessed by using a LanthaScreen Eu kinase activity assay technology (Invitrogen, Carlsbad, CA, USA). […] Reaction buffer for the kinase reaction consists of 50 mm HEPES pH 7.5, 0.01% BRIJ-35, 10 mm MgCl2, and 1 mm EGTA. The concentration of fluorescein-polyGAT substrate (Invitrogen) in the assay was […] reactions were initiated with the addition of […] in the presence of serial dilutions of compounds. The reactions were allowed to proceed for 1 hour at room temperature before a 10 μL preparation of EDTA (20 mm) and Eu-labeled antibody (4 nm) in TR-FRET dilution buffer was added. The final concentration of antibody in the assay well was 2 nm, and the final concentration of EDTA was 10 mm.
(In general: TR-FRET usually uses a lanthanide donor and a delayed reading to cut background.)

The target of test [2] is Epithelial discoidin domain-containing receptor 1 (Homo sapiens, UniProt Q08345). Description: LanthaScreen Eu Kinase Activity Assay. To be noted: pH 7.5; 25 °C. As to the method:
as §1

Epithelial discoidin domain-containing receptor 1, sequence (Q08345 whole entry, the tested form may be a part): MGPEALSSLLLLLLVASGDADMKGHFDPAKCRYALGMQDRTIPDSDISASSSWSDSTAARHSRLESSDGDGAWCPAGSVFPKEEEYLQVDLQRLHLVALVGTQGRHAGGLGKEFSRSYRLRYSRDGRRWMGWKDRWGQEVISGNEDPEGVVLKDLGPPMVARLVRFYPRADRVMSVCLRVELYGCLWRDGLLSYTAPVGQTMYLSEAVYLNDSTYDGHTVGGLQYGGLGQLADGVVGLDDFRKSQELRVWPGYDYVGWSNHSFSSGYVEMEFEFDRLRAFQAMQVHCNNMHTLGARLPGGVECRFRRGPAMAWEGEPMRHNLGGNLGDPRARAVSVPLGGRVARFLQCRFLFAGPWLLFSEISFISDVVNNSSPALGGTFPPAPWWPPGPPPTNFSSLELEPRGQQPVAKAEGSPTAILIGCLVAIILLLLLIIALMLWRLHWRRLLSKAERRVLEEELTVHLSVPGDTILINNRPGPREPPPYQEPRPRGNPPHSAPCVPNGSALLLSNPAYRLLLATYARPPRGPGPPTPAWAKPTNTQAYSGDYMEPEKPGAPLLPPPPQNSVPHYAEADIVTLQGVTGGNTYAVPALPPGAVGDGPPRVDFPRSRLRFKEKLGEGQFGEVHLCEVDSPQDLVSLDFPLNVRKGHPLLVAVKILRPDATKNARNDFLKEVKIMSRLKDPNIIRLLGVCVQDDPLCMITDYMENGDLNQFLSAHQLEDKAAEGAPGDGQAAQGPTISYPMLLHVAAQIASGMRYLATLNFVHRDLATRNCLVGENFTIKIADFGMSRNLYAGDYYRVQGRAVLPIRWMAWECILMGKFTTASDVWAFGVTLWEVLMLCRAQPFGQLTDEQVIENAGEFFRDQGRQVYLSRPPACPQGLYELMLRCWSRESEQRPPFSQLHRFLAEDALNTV

Consider `CCCCOC(=O)N1CCC(c2cc(Nc3ncc(C(=O)Nc4c(C)cccc4Cl)s3)nc(C)n2)C1` (stereo unspecified) [Butyl 3-(6-((5-((2-chloro-6-methylphenyl)carbamoyl)thiazol-2-yl)amino)-2-methylpyrimidin-4-yl)pyrrolidine-1-carboxylate (5e)], for which the IC50 (commonly the concentration needed to halve the response being measured) in test [1] was found to be 123 nM; in test [2], 15.3 nM.
In the same order, the values of `Cc1nc(Nc2ncc(C(=O)Nc3c(C)cccc3Cl)s2)cc(N2CCN(C(=O)OC(C)C)CC2)n1` [Isopropyl 4-(6-((5-((2-chloro-6-methylphenyl)carbamoyl)thiazol-2-yl)amino)-2-methylpyrimidin-4-yl)-piperazine-1-carboxylate (3c)] are 14 nM and 5.99 nM.
Turning to `COC(=O)N1CCN(c2cc(Nc3ncc(C(=O)Nc4c(C)cccc4Cl)s3)nc(C)n2)CC1` [Methyl 4-(6-((5-((2-chloro-6-methylphenyl)carbamoyl)thiazol-2-yl)amino)-2-methylpyrimidin-4-yl)-piperazine-1-carboxylate (3a)], the results for the IC50 in test [1] and in test [2] were 6.76 nM and 4.32 nM, respectively.
Turning to `C=CC(=O)N1CCC(Nc2cc(Nc3ncc(C(=O)Nc4c(C)cccc4Cl)s3)nc(C)n2)C1` (stereo unspecified) [2-((6-((1-Acryloylpyrrolidin-3-yl)amino)-2-methylpyrimidin-4-yl)amino)-N-(2-chloro-6-methylphenyl)thiazole-5-carboxamide (5k)], the IC50 worked out at 34.4 nM in test [1] and 7.31 nM in test [2].
In the same order, the values of `C=CCOC(=O)N1CCN(c2cc(Nc3ncc(C(=O)Nc4c(C)cccc4Cl)s3)nc(C)n2)CC1` [Allyl 4-(6-((5-((2-chloro-6-methylphenyl)carbamoyl)thiazol-2-yl)amino)-2-methylpyrimidin-4-yl)-piperazine-1-carboxylate (3d)] are 21.6 nM and 6.69 nM.
On to `Cc1nc(Nc2ncc(C(=O)Nc3c(C)cccc3Cl)s2)cc(C2CCN(C(=O)OC(C)C)C2)n1` (stereo unspecified) [Isopropyl 3-(6-((5-((2-chloro-6-methylphenyl)carbamoyl)thiazol-2-yl)amino)-2-methylpyrimidin-4-yl)pyrrolidine-1-carboxylate (5c)], for which the values for the half-inhibitory concentration (IC50) in test [1] and in test [2] were 72.1 nM and 9.14 nM, respectively.
As to `C/C=C/C(=O)N1CCN(c2cc(Nc3ncc(C(=O)Nc4c(C)cccc4Cl)s3)nc(C)n2)CC1` [(E)-2-((6-(4-(but-2-enoyl)piperazin-1-yl)-2-methylpyrimidin-4-yl)amino)-N-(2-chloro-6-methylphenyl)thiazole-5-carboxamide (3m)], the figures for the IC50 in test [1] and in test [2] were 8.34 nM and 4.25 nM, respectively.
For `C=CC(=O)N1CCN(c2cc(Nc3ncc(C(=O)Nc4c(C)cccc4Cl)s3)nc(C)n2)CC1` [2-((6-(4-Acryloylpiperazin-1-yl)-2-methylpyrimidin-4-yl)amino)-N-(2-chloro-6-methylphenyl)-thiazole-5-carboxamide (3l)], in that order: 6.29 nM and 4.54 nM.
With `Cc1nc(Nc2ncc(C(=O)Nc3c(C)cccc3Cl)s2)cc(N2CCN(C(=O)OCC(C)C)CC2)n1` [Isobutyl 4-(6-((5-((2-chloro-6-methylphenyl)carbamoyl)thiazol-2-yl)amino)-2-methylpyrimidin-4-yl)-piperazine-1-carboxylate (3f)], the concentration for half-maximal inhibition (IC50) in test [1] is 34.6 nM; in test [2] it was 6.75 nM.
As for `Cc1nc(Nc2ncc(C(=O)Nc3c(C)cccc3Cl)s2)cc(N2CCN(C(=O)OCCCl)CC2)n1` [2-Chloroethyl 4-(6-((5-((2-chloro-6-methylphenyl)carbamoyl)thiazol-2-yl)amino)-2-methylpyrimidin-4-yl)-piperazine-1-carboxylate (3i)], the IC50 in test [1] was 9 nM; in test [2], 4.21 nM.
As for `Cc1nc(Nc2ncc(C(=O)Nc3c(C)cccc3Cl)s2)cc(C2CCN(C(=O)OCC(C)C)C2)n1` (stereo unspecified) [Isobutyl 3-(6-((5-((2-chloro-6-methylphenyl)carbamoyl)thiazol-2-yl)amino)-2-methylpyrimidin-4-yl)pyrrolidine-1-carboxylate (5f)], the IC50 in test [1] is 85.4 nM; in test [2], 12.1 nM.
With `CCCCOC(=O)N1CCN(c2cc(Nc3ncc(C(=O)Nc4c(C)cccc4Cl)s3)nc(C)n2)CC1` [Butyl 4-(6-((5-((2-chloro-6-methylphenyl)carbamoyl)thiazol-2-yl)amino)-2-methylpyrimidin-4-yl)-piperazine-1-carboxylate (3e)], the values for the IC50 in test [1] and in test [2] were 6.16 nM and 3.2 nM, respectively.
With `Cc1nc(Nc2ncc(C(=O)Nc3c(C)cccc3Cl)s2)cc(C2CCN(C(=O)Oc3ccccc3)C2)n1` (stereo unspecified) [Phenyl 3-(6-((5-((2-chloro-6-methylphenyl)carbamoyl)thiazol-2-yl)amino)-2-methylpyrimidin-4-yl)pyrrolidine-1-carboxylate (5g)], the IC50 in test [1] worked out at 59.9 nM; in test [2] it was 7.51 nM.
For `Cc1nc(Nc2ncc(C(=O)Nc3c(C)cccc3Cl)s2)cc(N2CCN(C(=O)Oc3ccccc3)CC2)n1` [Phenyl 4-(6-((5-((2-chloro-6-methylphenyl)carbamoyl)thiazol-2-yl)amino)-2-methylpyrimidin-4-yl)-piperazine-1-carboxylate (3g)], in that order: 21.3 nM and 7.14 nM.
Regarding `Cc1nc(Nc2ncc(C(=O)Nc3c(C)cccc3Cl)s2)cc(N2CCN(C(=O)OCc3ccccc3)CC2)n1` [Benzyl 4-(6-((5-((2-chloro-6-methylphenyl)carbamoyl)thiazol-2-yl)amino)-2-methylpyrimidin-4-yl)-piperazine-1-carboxylate (3h)], the results for the IC50 in test [1] and in test [2] were 133 nM and 22.6 nM, respectively.
In the same order, the values of `COC(=O)N1CCC(c2cc(Nc3ncc(C(=O)Nc4c(C)cccc4Cl)s3)nc(C)n2)C1` (stereo unspecified) [Methyl 3-(6-((5-((2-chloro-6-methylphenyl)carbamoyl)thiazol-2-yl)amino)-2-methylpyrimidin-4-yl)pyrrolidine-1-carboxylate (5a)] are 32.9 nM and 5.23 nM.
In the case of `Cc1nc(Nc2ncc(C(=O)Nc3c(C)cccc3Cl)s2)cc(N2CCN(C(=O)OCCN3CCOCC3)CC2)n1` [2-Morpholinoethyl 4-(6-((5-((2-chloro-6-methylphenyl)carbamoyl)thiazol-2-yl)amino)-2-methylpyrimidin-4-yl)-piperazine-1-carboxylate (3j)], the IC50 in test [1] came out at 7.04 nM; in test [2] it was 2.26 nM.
Regarding `CCC(=O)N1CCC(Nc2cc(Nc3ncc(C(=O)Nc4c(C)cccc4Cl)s3)nc(C)n2)C1` (stereo unspecified) [N-(2-chloro-6-methylphenyl)-2-((2-methyl-6-((1-propionylpyrrolidin-3-yl)amino)pyrimidin-4-yl)amino)thiazole-5-carboxamide (5l)], the 50% inhibitory concentration (IC50) in test [1] is 23.9 nM; in test [2], 17.9 nM.
In the same order, the values of `C=CCOC(=O)N1CCC(c2cc(Nc3ncc(C(=O)Nc4c(C)cccc4Cl)s3)nc(C)n2)C1` (stereo unspecified) [Allyl 3-(6-((5-((2-chloro-6-methylphenyl)carbamoyl)thiazol-2-yl)amino)-2-methylpyrimidin-4-yl)pyrrolidine-1-carboxylate (5d)] are 17 nM and 13.3 nM.
For `Cc1nc(Nc2ncc(C(=O)Nc3c(C)cccc3Cl)s2)cc(C2CCN(C(=O)OCc3ccccc3)C2)n1` (stereo unspecified) [Benzyl 3-(6-((5-((2-chloro-6-methylphenyl)carbamoyl)thiazol-2-yl)amino)-2-methylpyrimidin-4-yl)pyrrolidine-1-carboxylate (5h)], the IC50 in test [1] stood at 285 nM; in test [2], 22 nM.
For `Cc1nc(Nc2ncc(C(=O)Nc3c(C)cccc3Cl)s2)cc(NC2CCN(S(C)(=O)=O)C2)n1` (stereo unspecified) [N-(2-chloro-6-methylphenyl)-2-((2-methyl-6-((1-(methylsulfonyl)pyrrolidin-3-yl)amino)-pyrimidin-4-yl)amino)thiazole-5-carboxamide (5i)], in that order: 38.3 nM and 11.7 nM.
For `CCS(=O)(=O)N1CCC(Nc2cc(Nc3ncc(C(=O)Nc4c(C)cccc4Cl)s3)nc(C)n2)C1` (stereo unspecified) [N-(2-chloro-6-methylphenyl)-2-((6-((1-(ethylsulfonyl)pyrrolidin-3-yl)amino)-2-methylpyrimidin-4-yl)amino)thiazole-5-carboxamide (5j)], the IC50 in test [1] came to 156 nM; in test [2], 48.5 nM.
For the compound `CCOC(=O)N1CCC(c2cc(Nc3ncc(C(=O)Nc4c(C)cccc4Cl)s3)nc(C)n2)C1` (stereo unspecified) [Ethyl 3-(6-((5-((2-chloro-6-methylphenyl)carbamoyl)thiazol-2-yl)amino)-2-methylpyrimidin-4-yl)pyrrolidine-1-carboxylate (5b)], the IC50 amounted to 22.4 nM in test [1] and 9.6 nM in test [2].
